# From ChEMBL document CHEMBL1201862, “PubChem BioAssay data set” (2004)
#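 The compound was tested at five concentrations on cells cultured in 96-well plates, with a 48-hour exposure period. GI50 marks 50% less growth.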 Calls of active or inactive are those of the source. Rule as the data show it: active = GI50 up to about 1.1 µM and inactive = higher.
# What was measured:
# Experiment in all cases: NCI tumour cell line growth inhibition, 48 h
# [1] = system: Hs-578T
# [2] = system: SK-OV-3
# [3] = system: MDA-MB-435
# [4] = system: ACHN
# [5] = system: RXF 393
# [6] = system: COLO 205
# [7] = system: BT-549
# [8] = system: SF-268
# [9] = system: NCI/ADR-RES
# [10] = system: CCRF-CEM
# [11] = system: HCT-116
# [12] = system: T47D
# [13] = system: SNB-19
# [14] = system: SK-MEL-28
# [15] = system: IGROV-1
# [16] = system: NCI-H23
# [17] = system: SK-MEL-2
# [18] = system: HT-29
# [19] = system: 786-0
# [20] = system: CAKI-1
# [21] = system: SF-539
# [22] = system: UO-31
# [23] = system: A498
# [24] = system: OVCAR-5
# [25] = system: HL-60
# [26] = system: MOLT-4
# [27] = system: M14
# [28] = system: UACC-257
# [29] = system: SR
# [30] = system: RPMI-8226
# [31] = system: HCC 2998
# [32] = system: SNB-75
# [33] = system: U-251
# [34] = system: K562
# [35] = system: SK-MEL-5
# [36] = system: UACC-62
# [37] = system: DU-145
# [38] = system: PC-3
# [39] = system: HOP-62
# [40] = system: EKVX
# [41] = system: OVCAR-4
# [42] = system: A549
# [43] = system: MCF7
# [44] = system: Malme-3M
# [45] = system: NCI-H522
# [46] = system: OVCAR-3
# [47] = system: SW-620
# [48] = system: MDA-N
# [49] = system: NCI-H226
# [50] = system: LOX IMVI
# [51] = system: NCI-H460
# [52] = system: KM12
# [53] = system: TK-10
# [54] = system: OVCAR-8
# [55] = system: MDA-MB-231
# [56] = system: HCT-15
# [57] = system: SN12C
# [58] = system: SF-295
# [59] = system: HOP-92
smiles,measurement,setting,value
Cc1ccccc1NC(=O)NC(Oc1ccccc1)(C(F)(F)F)C(F)(F)F,GI50,[1],> 100 µM (inactive)
same,GI50,[2],> 100 µM (inactive)
same,GI50,[3],> 100 µM (inactive)
same,GI50,[4],> 100 µM (inactive)
same,GI50,[5],73.1 µM (inactive)
same,GI50,[6],> 100 µM (inactive)
same,GI50,[7],> 100 µM (inactive)
same,GI50,[8],> 100 µM (inactive)
same,GI50,[9],> 100 µM (inactive)
same,GI50,[10],> 100 µM (inactive)
same,GI50,[11],> 100 µM (inactive)
same,GI50,[12],> 100 µM (inactive)
same,GI50,[13],> 100 µM (inactive)
same,GI50,[14],> 100 µM (inactive)
same,GI50,[15],> 100 µM (inactive)
same,GI50,[16],> 100 µM (inactive)
same,GI50,[17],> 100 µM (inactive)
same,GI50,[18],> 100 µM (inactive)
same,GI50,[19],> 100 µM (inactive)
same,GI50,[20],22.4 µM (inactive)
same,GI50,[21],> 100 µM (inactive)
same,GI50,[22],> 100 µM (inactive)
same,GI50,[23],> 100 µM (inactive)
same,GI50,[24],> 100 µM (inactive)
same,GI50,[25],> 100 µM (inactive)
same,GI50,[26],> 100 µM (inactive)
same,GI50,[27],> 100 µM (inactive)
same,GI50,[28],> 100 µM (inactive)
same,GI50,[29],> 100 µM (inactive)
same,GI50,[30],> 100 µM (inactive)
same,GI50,[31],> 100 µM (inactive)
same,GI50,[32],> 100 µM (inactive)
same,GI50,[33],> 100 µM (inactive)
same,GI50,[34],> 100 µM (inactive)
COc1ccc(-n2cnc3c2=NC(C)(C)NC=3C(N)=O)c(OC)c1,GI50,[35],> 100 µM (inactive)
same,GI50,[1],> 100 µM (inactive)
same,GI50,[2],> 100 µM (inactive)
same,GI50,[36],> 100 µM (inactive)
same,GI50,[3],> 100 µM (inactive)
same,GI50,[4],> 100 µM (inactive)
same,GI50,[5],> 100 µM (inactive)
same,GI50,[37],> 100 µM (inactive)
same,GI50,[6],> 100 µM (inactive)
same,GI50,[8],> 100 µM (inactive)
same,GI50,[9],> 100 µM (inactive)
same,GI50,[38],> 100 µM (inactive)
same,GI50,[39],> 100 µM (inactive)
same,GI50,[10],> 100 µM (inactive)
same,GI50,[40],> 100 µM (inactive)
same,GI50,[41],> 100 µM (inactive)
same,GI50,[42],> 100 µM (inactive)
same,GI50,[11],> 100 µM (inactive)
same,GI50,[12],> 100 µM (inactive)
same,GI50,[13],> 100 µM (inactive)
same,GI50,[14],> 100 µM (inactive)
same,GI50,[43],> 100 µM (inactive)
same,GI50,[15],> 100 µM (inactive)
same,GI50,[16],> 100 µM (inactive)
same,GI50,[44],> 100 µM (inactive)
same,GI50,[18],> 100 µM (inactive)
same,GI50,[19],> 100 µM (inactive)
same,GI50,[20],> 100 µM (inactive)
same,GI50,[45],> 100 µM (inactive)
same,GI50,[46],> 100 µM (inactive)
same,GI50,[47],> 100 µM (inactive)
same,GI50,[48],> 100 µM (inactive)
same,GI50,[21],> 100 µM (inactive)
same,GI50,[49],> 100 µM (inactive)
same,GI50,[23],> 100 µM (inactive)
same,GI50,[24],> 100 µM (inactive)
same,GI50,[50],> 100 µM (inactive)
same,GI50,[51],> 100 µM (inactive)
same,GI50,[25],> 100 µM (inactive)
same,GI50,[52],> 100 µM (inactive)
same,GI50,[27],> 100 µM (inactive)
same,GI50,[53],> 100 µM (inactive)
same,GI50,[28],> 100 µM (inactive)
same,GI50,[29],> 100 µM (inactive)
same,GI50,[30],> 100 µM (inactive)
same,GI50,[31],> 100 µM (inactive)
same,GI50,[32],> 100 µM (inactive)
same,GI50,[54],> 100 µM (inactive)
same,GI50,[33],> 100 µM (inactive)
same,GI50,[34],> 100 µM (inactive)
same,GI50,[55],> 100 µM (inactive)
same,GI50,[56],> 100 µM
same,GI50,[57],> 100 µM (inactive)
same,GI50,[58],> 100 µM (inactive)
same,GI50,[59],42.1 µM (inactive)
CC1(C)N=c2[nH]cnc2=C(C(N)=O)N1,GI50,[35],> 100 µM (inactive)
same,GI50,[1],> 100 µM (inactive)
same,GI50,[2],> 100 µM (inactive)
same,GI50,[36],> 100 µM (inactive)
same,GI50,[3],> 100 µM (inactive)
same,GI50,[4],> 100 µM (inactive)
same,GI50,[5],> 100 µM (inactive)
same,GI50,[37],> 100 µM (inactive)
same,GI50,[6],> 100 µM (inactive)
same,GI50,[8],> 100 µM (inactive)
same,GI50,[9],> 100 µM (inactive)
same,GI50,[38],> 100 µM (inactive)
same,GI50,[39],> 100 µM (inactive)
same,GI50,[10],> 100 µM (inactive)
same,GI50,[40],> 100 µM (inactive)
same,GI50,[41],> 100 µM (inactive)
same,GI50,[42],> 100 µM (inactive)
same,GI50,[11],> 100 µM (inactive)
same,GI50,[12],> 100 µM (inactive)
same,GI50,[13],> 100 µM (inactive)
same,GI50,[14],> 100 µM (inactive)
same,GI50,[43],> 100 µM (inactive)
same,GI50,[15],> 100 µM (inactive)
same,GI50,[16],> 100 µM (inactive)
same,GI50,[44],> 100 µM (inactive)
same,GI50,[17],> 100 µM (inactive)
same,GI50,[18],> 100 µM (inactive)
same,GI50,[19],> 100 µM (inactive)
same,GI50,[20],> 100 µM (inactive)
same,GI50,[45],> 100 µM (inactive)
same,GI50,[46],> 100 µM (inactive)
same,GI50,[47],> 100 µM (inactive)
same,GI50,[48],> 100 µM (inactive)
same,GI50,[21],> 100 µM (inactive)
same,GI50,[49],> 100 µM (inactive)
same,GI50,[23],> 100 µM (inactive)
same,GI50,[24],> 100 µM (inactive)
same,GI50,[50],> 100 µM (inactive)
same,GI50,[51],> 100 µM (inactive)
same,GI50,[25],> 100 µM (inactive)
same,GI50,[52],> 100 µM (inactive)
same,GI50,[27],> 100 µM (inactive)
same,GI50,[53],> 100 µM (inactive)
same,GI50,[28],> 100 µM (inactive)
same,GI50,[29],> 100 µM (inactive)
same,GI50,[30],> 100 µM (inactive)
same,GI50,[31],> 100 µM (inactive)
same,GI50,[32],> 100 µM (inactive)
same,GI50,[54],> 100 µM (inactive)
same,GI50,[33],> 100 µM (inactive)
same,GI50,[34],> 100 µM (inactive)
same,GI50,[55],> 100 µM (inactive)
same,GI50,[56],> 100 µM
same,GI50,[57],> 100 µM (inactive)
same,GI50,[58],> 100 µM (inactive)
same,GI50,[59],> 100 µM (inactive)
Cc1cc2cc3c(Cl)c(CCCl)c(C)nc3cc2c(Cl)c1CCCl,GI50,[35],12.6 µM (inactive)
same,GI50,[1],9.84 µM (inactive)
same,GI50,[36],15.6 µM (inactive)
same,GI50,[3],15.6 µM (inactive)
same,GI50,[4],20.9 µM (inactive)
same,GI50,[5],4.33 µM (inactive)
same,GI50,[37],21.6 µM (inactive)
same,GI50,[6],16.6 µM (inactive)
same,GI50,[7],19.9 µM (inactive)
same,GI50,[8],11.2 µM (inactive)
same,GI50,[9],22.9 µM (inactive)
same,GI50,[38],14.4 µM (inactive)
same,GI50,[39],13.8 µM (inactive)
same,GI50,[10],23.4 µM (inactive)
same,GI50,[40],2.87 µM (inactive)
same,GI50,[41],18.1 µM (inactive)
same,GI50,[42],17.8 µM (inactive)
same,GI50,[11],15.8 µM (inactive)
same,GI50,[12],15.8 µM (inactive)
same,GI50,[13],16.4 µM (inactive)
same,GI50,[14],18 µM (inactive)
same,GI50,[43],26.9 µM (inactive)
same,GI50,[15],26.2 µM (inactive)
same,GI50,[16],21.8 µM (inactive)
same,GI50,[44],20.8 µM (inactive)
same,GI50,[18],18.5 µM (inactive)
same,GI50,[19],24.5 µM (inactive)
same,GI50,[45],19.2 µM (inactive)
same,GI50,[46],13.5 µM (inactive)
same,GI50,[47],24.8 µM (inactive)
same,GI50,[21],12.1 µM (inactive)
same,GI50,[49],3.73 µM (inactive)
same,GI50,[22],16.1 µM (inactive)
same,GI50,[23],19.2 µM (inactive)
same,GI50,[50],15.2 µM (inactive)
same,GI50,[51],14.7 µM (inactive)
same,GI50,[25],11.5 µM (inactive)
same,GI50,[26],16 µM (inactive)
same,GI50,[52],17.9 µM (inactive)
same,GI50,[53],23.6 µM (inactive)
same,GI50,[28],18 µM (inactive)
same,GI50,[29],11.3 µM (inactive)
same,GI50,[30],14 µM (inactive)
same,GI50,[31],17.5 µM (inactive)
same,GI50,[32],17 µM (inactive)
same,GI50,[54],24.1 µM (inactive)
same,GI50,[33],23.5 µM (inactive)
same,GI50,[34],17.4 µM (inactive)
same,GI50,[56],24.9 µM
same,GI50,[58],17.2 µM (inactive)
same,GI50,[59],13.9 µM (inactive)
